Measured values: patent US10166218B2, “3-(1H-indol-2-yl)-1H-pyrazolo[3,4-C]pyridines and therapeutic uses thereof” (Samumed, LLC, priority 2015, dated 2019)

Assays:
Assay type in all cases: cell-based
[1] = system: primary human fibroblasts derived from IPF patients (LL29 cells) treated with TGF-β1; α-smooth muscle actin (αSMA); experiment: Inhibition of the fibrotic process: αSMA staining in TGF-β1 treated primary human fibroblasts from IPF patients (LL29 cells); conditions: Fibroblast, 96 h, TGF-β1 20 ng/mL, 4 days; for EC50: % cells positive for αSMA; for inhibition at 10 µM: αSMA, read-out: percent inhibition at 10 μM (given for EC50 of >10 μM)
Method in brief: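 LL29 IPF-patient lung fibroblasts in 1% FBS F12 were given compounds (11-point, 10 μM to […], 0.1% DMSO) plus TGF-β1 20 ng/mL for 4 days at 37 °C. αSMA-positive fraction of live (SYTOX-negative) cells was imaged and normalized to TGF-β1/DMSO wells. EC50 by non-linear regression, or % inhibition at 10 μM if >10 μM.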

[2] = system: Wnt activity (Sp5-Luc reporter, TCF/LEF binding sites) in SW480 colon carcinoma cells; experiment: Screening assay for Wnt activity: Sp5-Luc reporter gene assay in stably transduced SW480 cells; conditions: Homo sapiens; for EC50: overnight incubation; for inhibition at 10 µM: read-out: percent inhibition at 10 μM (given for EC50 of >10 μM)
Method in brief: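 First, hygromycin-selected SW480 Sp5-Luc reporter cells are seeded in medium with 1% fetal bovine serum and exposed overnight to compound (up to 10 μM, 0.1% DMSO). Next, luciferase signal is read by luminescence. Finally, EC50 is fitted, or percent inhibition at 10 μM is reported above 10 μM.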

SW480 colon cancer cells = experiment: Cell viability assay (CellTiter-Blue) in SW480 colon cancer cells; conditions: Homo sapiens, 96 h, four days; for inhibition at 10 µM: read-out: percent inhibition at 10 μM (given for EC50 of >10 μM); for EC50: CellTiter-Blue
Method in brief: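 SW480 colon cancer cells (~2×10^3/well) exposed to 8-point 1:3 dilutions from 10 μM to 0.0045 μM for four days at 37 °C/5% CO2. Viability read by resazurin (CellTiter-Blue) fluorescence after ~3 h, Ex 560/Em 590 nm. EC50 from non-linear regression; percent inhibition at 10 μM given when EC50 >10 μM.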

SMILES | EC50 [2] [µM] | EC50 (SW480 colon cancer cells) [µM] | EC50 [1] [µM] | inhibition at 10 µM (SW480 colon cancer cells) [%] | inhibition at 10 µM [2] [%] | inhibition at 10 µM [1] [%]
Cn1cc(-c2cc3c(-c4cc5c(-c6ccncc6)cccc5[nH]4)n[nH]c3cn2)cn1 [Compound 600, 5-(1-Methyl-1H-pyrazol-4-yl)-3-(4-(pyridin-4-yl)-1H-indol-2-yl)-1H-pyrazolo[3,4-c]pyridine] | 0.027 | > 10 | 0.013 | 45.1 | – | –
O=C(CC1CCNCC1)Nc1cncc(-c2cc3c(-c4cc5c(-c6ccccn6)cccc5[nH]4)n[nH]c3cn2)c1 [Compound 621, 2-(Piperidin-4-yl)-N-(5-(3-(4-(pyridin-2-yl)-1H-indol-2-yl)-1H-pyrazolo[3,4-c]pyridin-5-yl)pyridin-3-yl)acetamide] | > 10 | > 10 | 3.14 | 29.3 | 46.2 | –
c1cc(N2CCCCC2)c2cc(-c3n[nH]c4cnc(-c5cncc(OC6CCCCC6)c5)cc34)[nH]c2c1 [Compound 635, 5-(5-(Cyclohexyloxy)pyridin-3-yl)-3-(4-(piperidin-1-yl)-1H-indol-2-yl)-1H-pyrazolo[3,4-c]pyridine] | 3.84 | > 10 | 1.32 | 26.8 | – | –
c1cc(-c2ccoc2)c2cc(-c3n[nH]c4cnc(-c5cn[nH]c5)cc34)[nH]c2c1 [Compound 711, 3-(4-(Furan-3-yl)-1H-indol-2-yl)-5-(1H-pyrazol-4-yl)-1H-pyrazolo[3,4-c]pyridine] | 0.203 | > 10 | 0.125 | 45.1 | – | –
c1csc(-c2cccc3[nH]c(-c4n[nH]c5cnc(C6CCNCC6)cc45)cc23)c1 [Compound 725, 5-(Piperidin-4-yl)-3-(4-(thiophen-2-yl)-1H-indol-2-yl)-1H-pyrazolo[3,4-c]pyridine] | > 10 | > 10 | > 10 | 8.1 | 25.9 | 4.5
Cn1cc(-c2cc3c(-c4cc5ncccc5[nH]4)n[nH]c3cn2)cn1 [Compound 1022, 5-(1-Methyl-1H-pyrazol-4-yl)-3-(1H-pyrrolo[3,2-b]pyridin-2-yl)-1H-pyrazolo[3,4-c]pyridine] | 0.047 | 2.56 | > 10 | – | – | 44.5

The next lines start with results.

EC50 [2] [µM] | EC50 (SW480 colon cancer cells) [µM] | SMILES | EC50 [1] [µM] | inhibition at 10 µM (SW480 colon cancer cells) [%] | inhibition at 10 µM [2] [%] | inhibition at 10 µM [1] [%]
0.203 | > 10 | Fc1ccccc1-c1cccc2[nH]c(-c3n[nH]c4cnc(-c5cn[nH]c5)cc34)cc12 [Compound 567, 3-(4-(2-Fluorophenyl)-1H-indol-2-yl)-5-(1H-pyrazol-4-yl)-1H-pyrazolo[3,4-c]pyridine] | 0.027 | 46.1 | – | –
2.74 | 2.78 | CN(C)CCOc1cncc(-c2cc3c(-c4cc5c(-c6cccnc6)cccc5[nH]4)n[nH]c3cn2)c1 [Compound 591, N,N-Dimethyl-2-((5-(3-(4-(pyridin-3-yl)-1H-indol-2-yl)-1H-pyrazolo[3,4-c]pyridin-5-yl)pyridin-3-yl)oxy)ethan-1-amine] | 2.19 | – | – | –
0.407 | 1.07 | CN(C)CCNc1cc(F)cc(-c2cccc3[nH]c(-c4n[nH]c5cnc(-c6cncc(O)c6)cc45)cc23)c1 [Compound 817, 5-(3-(4-(3-((2-(Dimethylamino)ethyl)amino)-5-fluorophenyl)-1H-indol-2-yl)-1H-pyrazolo[3,4-c]pyridin-5-yl)pyridin-3-ol] | 0.519 | – | – | –
3.06 | > 10 | CN(C)CCOc1cncc(-c2cc3c(-c4cc5ncccc5[nH]4)n[nH]c3cn2)c1 [Compound 1029, 2-((5-(3-(1H-Pyrrolo[3,2-b]pyridin-2-yl)-1H-pyrazolo[3,4-c]pyridin-5-yl)pyridin-3-yl)oxy)-N,N-dimethylethan-1-amine] | 1.72 | 17.1 | – | –
